Test results published in patent publication US7595158B2, “Bcl2L12 polypeptide activators and inhibitors” (Dana-Farber Cancer Institute, Inc., priority 2003, dated 2009).

Columns and labels:
Assay type in all cases: cell-based, human
LN443 cells = assay: STS-induced DNA fragmentation (sub-G1, FACS) in LN443 cells; conditions: LN443, 2.0 μM STS; control siRNA about 40 percent
Procedure: (§1) LNZ308 and LN443 glioma cell lines transfected with control siRNA, Bcl2L12-targeting siRNA #4, or Bcl2L12-targeting siRNA #5 were treated with 0, 0.2, 0.5, 1.0, or 2.0 μM STS. DNA-fragmentation was assessed by quantifying sub-G1 peaks using FACS analysis. siRNA-mediated knockdown of Bcl2L12 polypeptide sensitized the glioma cell lines to STS-induced apoptosis. […] The maximum percent DNA fragmentation was about 30 percent, 45 percent, and 55 percent in LNZ308 cells transfected with control siRNA, siRNA #4, or siRNA #5, respectively, and treated with 2.0 μM STS (FIG. 10B). […] The maximum percent DNA fragmentation was about 40 percent, 60 percent, and 75 percent in LN443 cells transfected with control siRNA, siRNA #4, or siRNA #5, respectively, and treated with 2.0 μM STS (FIG. 10C).

Bcl2L12 polypeptide = assay: Endogenous Bcl2L12 polypeptide expression in U87MG cells (Western blot, immunofluorescence); conditions: 48 hours post transfection, anti-L12-1 Western blot
Procedure: Down-regulation of Bcl2L12 polypeptide expression via RNA interference was assessed in U87MG cells. Briefly, U87MG cells were co-transfected (1:10 ratio) with 0.5 μg of vector encoding GFP and 5 μg of either pSHAG-Control, pSHAG-Bcl2L12-A, pSHAG-Bcl2L12-B, or pSHAG-Bcl2L12-A+-B. Once transfected, the cells expressing GFP were sorted out by FACS analysis. […] The FACS-sorted cells were assessed for Bcl2L12 polypeptide expression. […] The FACS-sorted cells also were seeded in 24-well plates at a density of 1×10^5 cells, grown in 10% FBS-DMEM, and counted every day for three days.
In another experiment, total cellular lysates of U87MG cells transfected with control siRNA, Bcl2L12-targeting siRNA #4, or Bcl2L12-targeting siRNA #5 were harvested 48 hours post transfection and subjected to western blot analysis using the anti-L12-1 antibody (1 μg/mL).
The following experiments were performed to characterize the anti-Bcl2L12 polypeptide antibodies. U87MG cells stably expressing control or Bcl2L12-targeting shRNA (shL12-1) were subjected to deconvolution immunofluorescence microscopy using the anti-L12-2 antiserum. Cells were counterstained with DAPI. […]
The potential anti-oncogenic impact of Bcl2L12 polypeptide knockdown was assessed in the U87MG human glioma model system. […] Bcl2L12 polypeptide expression was analyzed by western blotting using the anti-L12-1 antibody. […]

[1] = test system: caspases 2, 3/7, 6, 8, and 9; assay: Caspase activity profile with fluorogenic peptide substrates in LNZ308 cells; conditions: LNZ308, STS 24 hours
Procedure: LNZ308 cells were transfected with control or siRNA oligonucleotide #5, and treated with STS for 24 hours. Subsequently, caspase activity was profiled using caspase-specific fluorogenic peptide substrates assessing the activity status of caspases 2, 3/7, 6, 8, and 9.

pro-caspase-7 = assay: Anti-L12-2 immunoprecipitation from U87MG cells, Western blot for caspase-7; conditions: anti-L12-2 immunoprecipitates
Procedure: To define further the molecular actions of Bcl2L12 polypeptides, the physical interactions with key post-mitochondrial apoptosis signaling molecules were assessed. Anti-L12-2 immunoprecipitates from lysates of LNZ308, U87MG, and 293T cells were subjected to western blot analysis for procaspases 7 and 3 and cytochrome c. Briefly, cells were lysed in IP buffer. Cleared supernatants were incubated with prebleed serum (8 μl) coupled to Protein A-sepharose 4B beads (Sigma) for 1 hour and subsequently with anti-L12-2 antiserum (8 μl) for 1 to 2 hours. For western blot analyses, polypeptides were separated by 4-12% SDS-PAGE, transferred to Hybond PVDF membranes (Amersham), blocked with 5% milk in phosphate-buffered saline with 0.05% Tween 20 (PBS/Tween) for 1 hour, washed with PBS/Tween and incubated with anti-cytochrome c antibodies (0.5 μg/ml; BD Pharmingen), anti-caspase-7 antibodies (0.5 μg/ml, BD Pharmingen), or anti-caspase-3 anitbodies (0.25 μg/ml, BD Transduction Laboratories) in PBS/Tween 20 with 5% milk. The blots were washed with PBS/Tween and developed with goat anti-rabbit IgG (1:10,000) or with goat anti-mouse antibodies (1:10,000) (Pierce) in 5% milk PBS/Tween. […] 1/40 of the lysate used for the immunoprecipitation was loaded to quantify the amount of co-immunoprecipitated caspase-7. […]

LNZ308 cells = assay: STS-induced DNA fragmentation (sub-G1, FACS) in LNZ308 cells; conditions: LNZ308, 2.0 μM STS; control siRNA about 30 percent
Procedure: as §1
LNZ308 cells co-transfected with pcDNA3-GFP and either pSHAG-A or pSHAG-B were treated with 0.1 or 0.5 μM of STS for 24 hours, and DNA fragmentation was assessed.

siRNA #5: Bcl2L12-targeting siRNA oligonucleotide 5′-UGGUGGAGCUGUUCUGUAG-3′; SEQ ID NO:7 (chemistry not given here)
maximum percent DNA fragmentation (LN443 cells): ~75%
Bcl2L12 polypeptide levels (Bcl2L12 polypeptide): significant reduction
caspase activity [1]: enhanced caspase activity
co-immunoprecipated pro-caspase-7 (pro-caspase-7): significant decrease
maximum percent DNA fragmentation (LNZ308 cells): ~55%
